Measurements taken from US20250059205A1, “Heterocyclic Compounds and Methods of Use” (AMGEN INC., priority 2021, published 2025).
Like-named read-outs stand apart in the source and are kept apart here.

How the values were obtained:
[1] = target: His-tagged KRAS G12D protein (Homo sapiens, UniProt P01116, G12D); assay: KRAS G12D TR-FRET Assay; assay type: binding
Protocol: Compounds of interest were prepared in a dose-response titration in DMSO, and 80 nL were added via Labcyte Echo to each well of a 384-well plate (Perkin Elmer 6008280). […] The plate was incubated for 30 minutes at room temperature. Biotinylated KRPep-2d substrate (Amgen) was diluted to 20 nM in Assay Buffer and 2 μL was added to all wells and incubated for 1 h at room temperature. Detection Reagent (0.4 nM LANCE Eu-W1024 Anti-6xHis (Perkin Elmer AD0401), 5 nM streptavidin-d2 (Cisbio 610SADLA)) was prepared in Assay Buffer, then 4 μL was added to the plate and incubated for 1 h at room temperature. Plates were read using PerkinElmer EnVision (ex: 320 nm, em1: 665 nm, em2: 615 nm) and em1/em2 data was used to generate curve fits using a 4-parameter logistic model to calculate IC50 values.

[2] = target: GDP-bound KRAS protein (aa 1-169), containing both G12D and C118A amino acid substitutions (Homo sapiens, UniProt P01116, C118A/G12D); assay: KRAS G12D Coupled Nucleotide Exchange Assay; assay type: biochemical; settings: 2 h compound pre-incubation
Protocol: Following compound pre-incubation, purified SOS protein (aa 564-1049) and GTP (Roche 10106399001) were added to the assay wells and incubated for an additional 30 min. […] The assay plates were then read on a PerkinElmer EnVision Multilabel Reader, using AlphaScreen® technology, and data were analyzed using a 4-parameter logistic model to calculate IC50 values.

[3] = test system: Phosphorylation of ERK1/2 in AsPC-1 cells; assay: Phospho-ERK1/2 MSD Assay (AsPC-1 cells); assay type: cell-based; settings: Homo sapiens, read-out: p-ERK (AsPC-1 cells) IC50
Protocol: AsPC-1 (ATCC® CRL-1682™) cells were cultured in RPMI 1640 Medium (ThermoFisher Scientific 11875093) containing 10% fetal bovine serum (ThermoFisher Scientific 16000044) and 1× penicillin-streptomycin-glutamine (ThermoFisher Scientific 10378016). Sixteen hours prior to compound treatment, AsPC-1 cells were seeded in 96-well cell culture plates at a density of 25,000 cells/well and incubated at 37° C., 5% CO2. A compound dose-response titration was diluted in growth media, added to appropriate wells of a cell culture plate, and then incubated at 37° C., 5% CO2 for 2 hours. Following compound treatment, cells were washed with ice-cold Dulbecco's phosphate-buffered saline, no Ca^2+ or Mg^2+ (ThermoFisher Scientific 14190144), and then lysed in RIPA buffer (50 mM Tris-HCl pH 7.5, 1% Igepal, 0.5% sodium deoxycholate, 150 mM NaCl, and 0.5% sodium dodecyl sulfate) containing protease inhibitors (Roche 4693132001) and phosphatase inhibitors (Roche 4906837001). Phosphorylation of ERK1/2 in compound-treated lysates was assayed using Phospho-ERK1/2 Whole Cell Lysate kits (Meso Scale Discovery K151DWD) according to the manufacturer's protocol. Assay plates were read on a Meso Scale Discovery Sector Imager 6000, and data were analyzed using a 4-parameter logistic model to calculate IC50 values.

His-tagged KRAS G12D protein, sequence (P01116 1-188 isoform P01116-2 G12D): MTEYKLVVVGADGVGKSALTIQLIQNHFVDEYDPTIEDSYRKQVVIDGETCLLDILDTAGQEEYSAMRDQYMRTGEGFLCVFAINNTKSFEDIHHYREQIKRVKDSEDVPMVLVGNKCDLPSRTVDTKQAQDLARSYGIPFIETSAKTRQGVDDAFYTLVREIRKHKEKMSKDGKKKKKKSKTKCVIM
GDP-bound KRAS protein (aa 1-169), containing both G12D and C118A amino acid substitutions, sequence (P01116 1-169 isoform P01116-2 G12D/C118A): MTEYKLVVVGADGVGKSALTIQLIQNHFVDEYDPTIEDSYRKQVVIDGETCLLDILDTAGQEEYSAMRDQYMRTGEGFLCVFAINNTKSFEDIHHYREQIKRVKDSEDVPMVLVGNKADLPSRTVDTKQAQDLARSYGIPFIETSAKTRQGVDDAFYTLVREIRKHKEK

Row | IC50 [1] | Avg 2 h Coupled Exchange IC50 [2] | SMILES | IC50 ([3]; ASPC1, 2 h, 2 hours treatment) | IC50 ([3]; ASPC1, 2 hours treatment)
1 | 546 nM | 259 nM | Oc1cc(-c2ccc3c(N4[C@@H]5CC[C@H]4CNC5)nc(OC[C@@]45CCCN4C[C@H](F)C5)nc3c2F)c2cnccc2c1 [Example 31, 8-(4-((1R,5S)-3,8-diazabicyclo[3.2. 1]octan-8-yl)-8-fluoro-2-(((2R,7aS)-2-fluorotetrahydro-1H-pyrrolizin-7a(5H)-yl)methoxy)quinazolin-7-yl)isoquinolin-6-ol] |  | 
2 | 4700 nM | 1820 nM | Oc1ccc(Cl)c(-c2ccc3c(N4[C@@H]5CC[C@H]4CNC5)nc(OC[C@@]45CCCN4C[C@H](F)C5)nc3c2)c1F [Example 35, 3-(4-((1R,5S)-3,8-diazabicyclo[3.2. 1]octan-8-yl)-2-(((2R,7aS)-2-fluorotetrahydro-1H-pyrrolizin-7a(5H)-yl)methoxy)quinazolin-7-yl)-4-chloro-2-fluorophenol] |  | 
3 | 2560 nM | 1670 nM | N#Cc1c(OC[C@@]23CCCN2C[C@H](F)C3)nc2c(F)c(-c3cc(O)cc4ccccc34)c(Cl)cc2c1N1C[C@H]2CC[C@@H](C1)N2 [Example 61, 4-((1R,5S)-3,8-diazabicyclo[3.2. 1]octan-3-yl)-6-chloro-8-fluoro-2-(((2R,7aS)-2-fluorotetrahydro-1H-pyrrolizin-7a(5H)-yl)methoxy)-7-(3-hydroxynaphthalen-1-yl)quinoline-3-carbonitrile] |  | 
4 | 2650 nM | 1170 nM | N#Cc1c(OC[C@@]23CCCN2C[C@H](F)C3)nc2c(F)c(-c3cc(O)cc4ccccc34)ccc2c1N1C[C@H]2CC[C@@H](C1)N2 [Example 62, 4-((1R,5S)-3,8-diazabicyclo[3.2. 1]octan-3-yl)-8-fluoro-2-(((2R,7aS)-2-fluorotetrahydro-1H-pyrrolizin-7a(5H)-yl)methoxy)-7-(3-hydroxynaphthalen-1-yl)quinoline-3-carbonitrile] |  | 
5 | > 25000 nM | 555 nM | CN1C[C@H](F)C[C@H]1COc1nc2c(F)c(-c3cc(O)cc4ccccc34)c(Cl)cc2c(N2C[C@H]3CC[C@@H](C2)N3)c1C#N [Example 63, 4-((1R,5S)-3,8-diazabicyclo[3.2. 1]octan-3-yl)-6-chloro-8-fluoro-2-(((2S,4R)-4-fluoro-1-methylpyrrolidin-2-yl)methoxy)-7-(3-hydroxynaphthalen-1-yl)quinoline-3-carbonitrile] |  | 
6 | 940 nM | 300 nM | Cn1ncc2cccc(-c3ccc4c(N5C[C@H]6CC[C@@H](C5)N6)nc(OC[C@@]56CCCN5C[C@H](F)C6)nc4c3)c21 [Example 66, 4-((1R,5S)-3,8-diazabicyclo [3.2. 1]octan-3-yl)-2-(((2R,7aS)-2-fluorotetrahydro-1H-pyrrolizin-7a(5H)-yl)methoxy)-7-(1-methyl-1H-indazol-7-yl)quinazoline] |  | 
7 | 512 nM | 199 nM | Cc1ccc2cn[nH]c2c1-c1ccc2c(N3C[C@H]4CC[C@@H](C3)N4)nc(OC[C@@]34CCCN3C[C@H](F)C4)nc2c1 [Example 67, 4-((1R,5S)-3,8-diazabicyclo[3.2. 1]octan-3-yl)-2-(((2R,7aS)-2-fluorotetrahydro-1H-pyrrolizin-7a(5H)-yl)methoxy)-7-(6-methyl-1H-indazol-7-yl)quinazoline] |  | 
8 | 1080 nM | 517 nM | CN1C[C@H](F)C[C@H]1COc1nc(N2[C@@H]3CC[C@H]2CNC3)c2cc(F)c(-c3cc(O)cc4ccccc34)c(O)c2n1 [Example 103, 4-((1R,5S)-3,8-diazabicyclo[3.2.1]octan-8-yl)-6-fluoro-2-(((2S,4R)-4-fluoro-1-methylpyrrolidin-2-yl)methoxy)-7-(3-hydroxynaphthalen-1-yl)quinazolin-8-ol] |  | 
9 | 544 nM | 2300 nM | C=Cc1c(F)ccc2cccc(-c3ccc4c(N5[C@@H]6CC[C@H]5CNC6)nc(OC[C@@]56CCCN5C[C@H](F)C6)nc4c3)c12 [Example 104, 4-((1R,5S)-3,8-diazabicyclo[3.2.1]octan-8-yl)-7-(7-fluoro-8-vinylnaphthalen-1-yl)-2-(((2R,7aS)-2-fluorotetrahydro-1H-pyrrolizin-7a(5H)-yl)methoxy)quinazoline] |  | 
10 | 44 nM | 69 nM | CCc1c(F)ccc2cc(O)cc(-c3ccc4c(N5C[C@H]6CC[C@@H](C5)N6)cc(OC[C@@]56CCCN5C[C@H](F)C6)nc4c3)c12 [Example 210, 4-(4-((1R,5S)-3,8-Diazabicyclo[3.2.1]octan-3-yl)-2-(((2R,7aS)-2-fluorotetrahydro-1H-pyrrolizin-7a(5H)-yl)methoxy)quinolin-7-yl)-5-ethyl-6-fluoronaphthalen-2-ol] |  | 

Row | SMILES | IC50 [1] | Avg 2 h Coupled Exchange IC50 [2] | IC50 ([3]; ASPC1, 2 h, 2 hours treatment) | IC50 ([3]; ASPC1, 2 hours treatment)
11 | CCc1c(F)ccc2cc(O)cc(-c3c(O)cc4c(N5CC6CCC(C5)N6)nc(OCC56CCCN5C[C@H](F)C6)nc4c3F)c12 (atropisomer, axis not shown; (M)) [Example 234, (M)-4-((1R,5S)-3,8-Diazabicyclo[3.2.1]octan-3-yl)-7-(8-ethyl-7-fluoro-3-hydroxynaphthalen-1-yl)-8-fluoro-2-(((2R,7aS)-2-fluorotetrahydro-1H-pyrrolizin-7a(5H)-yl)methoxy)quinazolin-6-ol] | 1 nM | 2 nM | 22 nM | 
12 | Oc1cc(-c2ccc3c(N4C[C@H]5COC[C@@H](C4)N5)nc(OC[C@@]45CCCN4C[C@H](F)C5)nc3c2F)c2ccccc2c1 [Example 16, 4-(4-((1R,5S)-3-oxa-7,9-diazabicyclo[3.3. 1]nonan-7-yl)-8-fluoro-2-(((2R,7aS)-2-fluorotetrahydro-1H-pyrrolizin-7a(5H)-yl)methoxy)quinazolin-7-yl)naphthalen-2-ol] | 20 nM | 7 nM | 4820 nM | 
13 | Oc1cc(-c2c(F)cc3c(N4[C@@H]5CC[C@H]4CNC5)nc(OC[C@@]45CCCN4C[C@H](F)C5)nc3c2O)c2ccccc2c1 [Example 102, 4-((1R,5S)-3,8-Diazabicyclo[3.2.1]octan-8-yl)-6-fluoro-2-(((2R,7aS)-2-fluorotetrahydro-1H-pyrrolizin-7a(5H)-yl)methoxy)-7-(3-hydroxynaphthalen-1-yl)quinazolin-8-ol] | 144 nM | 55 nM |  | 10100 nM
14 | Oc1cc(-c2ccc3c(C4=CC5CCC(C4)N5)nc(OC[C@@]45CCCN4C[C@H](F)C5)nc3c2)c2ccccc2c1 (some centres unmarked) [Example 108] | 11700 nM | 671 nM | 420 nM | 
15 | CCc1c(F)ccc2cc(O)cc(-c3ccc4c(N5C[C@@H]6CC[C@](F)(C5)N6)nc(OC[C@@]56CCCN5C[C@H](F)C6)nc4c3F)c12 [Example 178, 5-ethyl-6-fluoro-4-(8-fluoro-4-((1S,5S)-1-fluoro-3,8-diazabicyclo[3.2.1]octan-3-yl)-2-(((2R,7aS)-2-fluorotetrahydro-1H-pyrrolizin-7a(5H)-yl)methoxy)quinazolin-7-yl)naphthalen-2-ol] | 3 nM | 5 nM | 143 nM | 
16 | CCc1c(F)ccc2cc(O)cc(-c3ccc4c(N5C[C@H]6CC[C@@](F)(C5)N6)nc(OC[C@@]56CCCN5C[C@H](F)C6)nc4c3F)c12 [Example 179, 5-ethyl-6-fluoro-4-(8-fluoro-4-((1R,5R)-1-fluoro-3,8-diazabicyclo[3.2.1]octan-3-yl)-2-(((2R,7aS)-2-fluorotetrahydro-1H-pyrrolizin-7a(5H)-yl)methoxy)quinazolin-7-yl)naphthalen-2-ol] | 2 nM | 4 nM | 46 nM | 
17 | CCc1c(F)ccc2cc(O)cc(-c3c(F)cc4c(N5C[C@H]6CC[C@@H](C5)N6)nc(OCC5(C)CCC(=O)N5)nc4c3F)c12 (stereo partly drawn) [Example 216, 5-(((4-((1R,5S)-3,8-diazabicyclo[3.2.1]octan-3-yl)-7-(8-ethyl-7-fluoro-3-hydroxynaphthalen-1-yl)-6,8-difluoroquinazolin-2-yl)oxy)methyl)-5-methylpyrrolidin-2-one] | 5 nM | 9 nM | 834 nM | 
